Results from paper PMC12091851, “Replacing a Cereblon Ligand by a DDB1 and CUL4 Associated Factor 11 (DCAF11) Recruiter Converts a Selective Histone Deacetylase 6 PROTAC into a Pan‐Degrader” (Chemmedchem, 2025).

Experiments:
[1] = system: acetylated α-tubulin and histone H3; test: Cellular target engagement, immunoblot of acetylated α-tubulin and histone H3 in MM.1S; assay type: cell-based, human; settings: MM.1S cells, 10 μM, 24 h; compared to 2 and A6
Method: Moreover, the capability to reduce the enzymatic activity of HDACs was confirmed by a cellular target engagement assay. MM.1S cells were treated with the PROTACs and the level of acetylated HDAC substrate proteins was subsequently determined. Class I HDACs deacetylate histone H3, and thus hyperacetylation of histone H3 indicates class I HDAC inhibition. Conversely, hyperacetylation of α‐tubulin serves a marker of HDAC6 inhibition. Both hit compounds are capable of inhibiting class I and HDAC6 in a cellular environment, confirming effective target engagement in MM.1S cells (Figure 5). With regards to the HDAC6 inhibition, the trend of the enzyme inhibition data was thus confirmed. […]
Samples of the aqueous solutions were taken after 0, 24, 48, and 72 h at room temperature and the amounts of the parental compound and potential fragments were monitored by HPLC gradient A (see 3.1 General Information). […]
Afterwards, proteins were transferred with the Trans -Blot Turbo Transfer System (Catalog# 1704150, Bio-Rad) to Immobilon-FL PVDF membranes (Catalog# IPFL00005, Mill ipore Merck, Burlington, MA, USA) at 1.0 A for 30 min and treated with 5% milk-powder solution for 1 h at room temperature under slight agitation. […] The ChemiDoc XRS+ System (Catalog# 1708265 , Bio-Rad) was used for detection and Image Lab Software 6.1 (Bio-Rad) for quantification. […]

[2] = system: HDAC1, 2, 4, and 6; test: Immunoblot HDAC isoform degradation in MM.1S, all tested isoforms; assay type: cell-based, human; settings: MM.1S cells, 10 μM, 24 h
Method: Figure 6 Examination of HDAC isoform degradation. MM.1S cells were treated with the indicated compounds (10 μM) or vehicle (DMSO) for 24 h. HDAC1, 2, 4, and 6 levels were analyzed by immunoblotting. (A) Representative images from a total of n=3 biological replicates.
2.5. Aqueous Stability Assay
For stability testing in aqueous solution, a 10-fold concentrated DMSO solution of the respective compounds was diluted in DPBS to generate a 10 µM concentration (final DMSO content of 10%).
Samples of the aqueous solutions were taken after 0, 24, 48, and 72 h at room temperature and the amounts of the parental compound and potential fragments were monitored by HPLC gradient A (see 3.1 General Information). The peak area of the 0 h sample was used for normalization. All compounds were tested in duplicates and GraphPad Prim was used for evaluation and data visualization.
The cell lysis was performed as descripted in 3.2. Simple Western Immunoassay. Samples were denatured by Laemmli 2× Concentrate (Catalog# S3401-10VL, Sigma-Aldrich) for 5 min at 95 °C, and […]
Bio-Rad, Hercules, CA, USA). […]
6.1 (Bio-Rad) for quantification. […]
In vitro inhibitory activities against HDAC1, 2 , and 6 were measured using a previously published protocol.[3] In vitro inhibitory activities against HDAC4 were measured using a previously published protocol with slight modifications. […]

O=C(CCCCCCNC(=O)c1ccc(NC(=O)CCCCCCCCCCCN(C(=O)CCl)C(C(=O)NCc2ccccc2)c2ccc(Cl)c(Cl)c2)cc1)NO (centres unmarked) [Compound 1j]
histone H3 hyperacetylation [1]: more pronounced
Dmax, all four tested isoforms / other HDAC isoforms [2]: 71–90%
